{
  "source": "patent US20110039869A1",
  "about": "“COMPOSITION FOR INHIBITING THE ACTIVITY OF INOSITOL 1,4,5-TRIPHOSPHATE RECEPTOR SUBTYPE III” (Korea Institute of Science and Technology, priority 2008, published 2011)",
  "key": {"U178MG cells [1]": {"tested_on": "U178MG cells", "assay": "Ca2+ imaging: block against agonist-induced intracellular Ca2+ release in U178MG cells", "type": "cell-based, human", "details": "for TFLLR induced Ca2+ release: 10 mM compound; for IC50: Homo sapiens, U178MG cells", "protocol": "100 seconds after the treatment, the cells were divided into two separate groups, each being stimulated with GPCR (G-protein coupled receptors) agonists, i.e., […] or 10 μM bradykinin, respectively. […] The measurement of Ca^2+ concentration through the measurement of inward current was conducted as described in ‘Justin Lee, et al., The Journal of Physiology, Astrocytic control of synaptic NMDA receptor, 2007’, which is hereby incorporated by reference for all purposes as if fully set forth herein.\nAfter 100 seconds, the cells were stimulated with 30 μM TFLLR.\nError bars indicate SEM. […] Such substance may include: iso-propyl theophylline, 7-(β-3-hydroxyethyl)theophylline, xanthine, theophylline, and 1,7-dimethyl-3-isobutyl xanthine."}, "[2]": {"tested_on": "U178MG, U87MG, wtEGFR, and ΔEGRF cells", "assay": "Scrape motility assay", "type": "cell-based, human", "details": "24 hours; 10 mM caffeine, 1 μM thapsigargin, 10 μM 2-APB, 20 μM CPA, 50 μM BAPTA-AM, 10 μM ryanodine", "protocol": "The cell lines were obtained from Emory Uni (U178MG) and ATCC (U87MG, T98G, and M59K). All cell lines were grown as monolayers in 12-well culture plates in serum-containing media (Emory Uni). […] To prevent proliferation, fluorodeoxyuridine (FdU/U; Sigma) was added. After incubation for 24 hours, the cells were fixed in 4% paraformaldehyde. The area of repopulation of three 10× fields within the scrape areas were determined and the mean percentage of scrape area to wound closure was determined."}, "[3]": {"tested_on": "shRNA for IP3R3 expressing U178MG cells", "assay": "Block against Ca2+ responses in U178MG cells expressing shRNA for IP3R3", "type": "cell-based, human", "protocol": "FIGS. 6d and 6e are Ca^2+ imaging result for U178MG cells, which were transfected with GFP-attached shRNA for IP3R3 via electroporation."}, "[4]": {"tested_on": "U178MG, U87MG, U373MG, and T98G cells", "assay": "Matrigel invasion assay", "type": "cell-based, human", "details": "24 h; 1, 2, 5, 10 mM caffeine; dose dependent", "protocol": "The cell lines were obtained from ATCC. […] Cell invasion was assayed using transwell inserts (Corning, N.Y., USA) containing […] pore size in 24-well culture plates. For invasion assay, inserts were coated with 2 mg/ml basement membrane Matrigel (BD Bioscience, Bedford, Mass., USA). 1×10^5 cells in serum-free medium (FBS, DMEM, from GIBCO, Invitrogen, USA) were plated onto the upper side of insert and complete medium was placed in the lower chamber to act as a chemoattractant. After 24 h of incubation at 37° C., the cells on the upper side of insert were removed by wiping with a cotton swab and cells migrated to the lower side of membrane were stained with DAPI (Molecular Probes, Invitrogen, USA) and randomly photographed with microscopy at ×40 magnification. The mean number of untreated cells was considered as 100% invasion."}, "glioma": {"tested_on": "glioma", "assay": "Soft agar assay (colony formation)", "type": "cell-based, human", "details": "0.5, 1, 2, 5, 10 mM caffeine; 14 to 17 days; dose dependent", "protocol": "Cells (1×10^4) were seeded into 6-well plates in a soft agar (0.3%, Difco) overlaying a 0.6% base agar. […] Cells were incubated at 37° C. for 14 to 17 days to allow colonies to develop. Afterward colonies were stained with 0.05% cresyl violet and photographed. The group without caffeine treatment was used as a control. Each assay was done in triplicate (n=3)."}, "U178MG glioma cells": {"tested_on": "U178MG glioma cells", "assay": "Invasion of U178MG glioma cells in organotypic hippocampal slice cultures (OHSCs)", "type": "cell-based, human", "details": "1, 2, 5, 10 mM caffeine; 120 hours vs 1 hour; proportional to concentration"}, "U87MG cells [5]": {"tested_on": "U87MG cells", "assay": "Xenograft tumor growth assay", "type": "in vivo, athymic mice (Balb/c nu/nu)", "details": "caffeine 1 mg/ml in drinking water from day 7; 4 weeks", "protocol": "Five-week-old athymic mice (Balb/c nu/nu) were obtained from Central Lab. Animal Inc. (Japan). For the xenograft tumor growth assay, U87MG cells (3×10^5 cells/150 ul PBS) were injected subcutaneously into the right flanks of the mice (n=5 to 10 mice per group), and the experiment was conducted in triplicate. […] The control animals were given distilled water. Tumor mass was estimated twice per week for 4 weeks, and tumor volumes were calculated by the formula: […]"}, "U178MG cells [6]": {"tested_on": "U178MG cells", "assay": "Dependence of caffeine action on store-operated channels or store depletion", "type": "cell-based, human", "details": "10 mM caffeine; thapsigargin 1 μM, cyclopiazonic acid 20 μM", "protocol": "Firstly, 1 μM thapsigargin was applied for 2 min in Ca^2+ free HEPES buffer. After depletion of Ca^2+ from endoplasmic reticulum, extra solution was changed to 2 mM Ca^2+HEPES buffer."}, "U178MG cells [7]": {"tested_on": "U178MG cells", "assay": "Live imaging of cell migration", "type": "cell-based, human", "details": "10 minute intervals for 9 hours"}, "[8]": {"tested_on": "GBM, U178MG, T98G, U87MG and HEK293", "assay": "Block against GPCR agonist-induced intracellular Ca2+ release in various cell types", "type": "cell-based, human", "details": "10 mM caffeine", "protocol": "The cell lines were obtained from Department of Neurosurgery, Seoul National University College of Medicine (GBM), Emory Uni. ([…]) and ATCC (T98G, U87MG, and HEK293), respectively. […] Error bars are mean±SEM."}, "U87MG cells [9]": {"tested_on": "U87MG cells", "assay": "Orthotropic implantation model, survival rate", "details": "1 mg/ml caffeine containing drinking water"}},
  "note": "Entries after “also recorded” stand apart in the source; their conditions may differ. Where two headings read alike, the source gives them in different places.",
  "data": [
    {"molecule": "O=c1[nH]c(=O)c2[nH]cnc2[nH]1", "note": "[xanthine]", "values": [
      {"measurement": "blocking effect on IP3R3 mediated-Ca2+ response", "setting": "U178MG cells [1]; caffeine analogs, FIG. 10c", "value": "excellent selective blocking effect"}
    ]},
    {"molecule": "COc1ccc2c(c1)CC[C@@H]1[C@@H]2CC[C@]2(C)[C@@H](NCCCCCCN3C(=O)C=CC3=O)CC[C@@H]12", "note": "[U73122]", "values": [
      {"measurement": "release of Ca2+ from intracellular stores in response to activation of GPCRs and RTKs", "setting": "U178MG cells [1]; GBM cells", "value": "completely inhibited"}
    ]},
    {"molecule": "CC(C)Cn1c(=O)n(C)c(=O)c2c1ncn2C", "note": "[1,7-dimethyl-3-isobutyl xanthine]", "values": [
      {"measurement": "blocking effect on IP3R3 mediated-Ca2+ response", "setting": "U178MG cells [1]; caffeine analogs, FIG. 10c", "value": "excellent selective blocking effect"}
    ]},
    {"molecule": "Cn1c(=O)c2c(ncn2CCO)n(C)c1=O", "note": "[7-(β-3-hydroxyethyl)theophylline]", "values": [
      {"measurement": "blocking effect on IP3R3 mediated-Ca2+ response", "setting": "U178MG cells [1]; caffeine analogs, FIG. 10c", "value": "excellent selective blocking effect"}
    ]},
    {"molecule": "CC(C)n1cnc2c1c(=O)n(C)c(=O)n2C", "note": "[iso-propyl theophylline]", "values": [
      {"measurement": "blocking effect against Ca2+ release (% block)", "setting": "U178MG cells [1]; caffeine analogs, FIG. 10c", "value": "some degree of blocking effects"},
      {"measurement": "blocking effect on IP3R3 mediated-Ca2+ response", "setting": "U178MG cells [1]; caffeine analogs, FIG. 10c", "value": "excellent selective blocking effect"}
    ]},
    {"molecule": "CCn1cnc2c1c(=O)n(C)c(=O)n2C", "note": "[7-ethyl theophylline]", "values": [
      {"measurement": "TFLLR induced Ca2+ release", "setting": "U178MG cells [1]; 30 μM TFLLR", "value": "no inhibition"}
    ]},
    {"molecule": "ryanodine", "values": [
      {"measurement": "motility (wound closure by cell migration)", "setting": "[2]", "value": "did not show any cell migration as such"}
    ]},
    {"molecule": "CC(=O)OCOC(=O)CN(CC(=O)OCOC(C)=O)c1ccccc1OCCOc1ccccc1N(CC(=O)OCOC(C)=O)CC(=O)OCOC(C)=O", "note": "[BAPTA-AM]", "values": [
      {"measurement": "motility (wound closure by cell migration)", "setting": "[2]", "value": "mimicked"}
    ]},
    {"molecule": "Cn1c(=O)c2c(ncn2C)n(C)c1=O", "note": "[caffeine]", "values": [
      {"measurement": "increase of [Ca2+]i after stimulation with EGF or bradykinin", "setting": "U178MG cells [1]; 10 mM caffeine, 100 ng/ml EGF or 10 μM bradykinin", "value": "no significant increase"},
      {"measurement": "TFLLR induced Ca2+ release", "setting": "U178MG cells [1]; 30 μM TFLLR", "value": "inhibited"},
      {"measurement": "increase of TFLLR-induced intracellular Ca2+ concentration", "setting": "U178MG cells [1]; 0.3, 3, 10, 30 mM caffeine, 30 μM TFLLR, concentration dependent", "value": "inhibits the increase"},
      {"measurement": "IC50", "setting": "U178MG cells [1]; EGF 100 ng/ml, read-out: IC50, Ca2+ release evoked by EGF", "value": 1.87, "unit": "mM"},
      {"measurement": "IC50", "setting": "U178MG cells [1]; TFLLR 30 μM, read-out: IC50, Ca2+ release evoked by TFLLR", "value": 2.45, "unit": "mM"},
      {"measurement": "block against Ca2+ responses, IP3R3 silenced by shRNA", "setting": "[3]", "value": 20, "unit": "%"},
      {"measurement": "invasion through Matrigel", "setting": "[4]", "value": "reduced the invasion rate; also recorded: significantly inhibited"},
      {"measurement": "proliferation / anchorage-independent growth (colonies)", "setting": "glioma", "value": "reduced the anchorage-independent growth; also recorded: significantly inhibited"},
      {"measurement": "invasion area of DiI-stained cells", "setting": "U178MG glioma cells", "value": "invasion area was reduced"},
      {"measurement": "increase of tumor mass", "setting": "U87MG cells [5]", "value": "significantly inhibited"},
      {"measurement": "cause of Ca2+ block (store depletion, store-operated channels)", "setting": "U178MG cells [6]", "value": "not due to Ca^2+ depletion or block of Ca^2+ flow through TRPC"},
      {"measurement": "migration of U178MG cells", "setting": "U178MG cells [7]", "value": "significantly slowed down"},
      {"measurement": "GPCR-induced intracellular Ca2+ release in GBM, U178MG, T98G, U87MG and HEK293", "setting": "[8]", "value": "inhibited"},
      {"measurement": "degree of inhibition of Ca2+ responses, U178MG cells compared with other cell types", "setting": "[8]", "value": "highest blocking effect"},
      {"measurement": "intracellular Ca2+ release", "setting": "[8]; 10 μM bradykinin", "value": "blocked"},
      {"measurement": "intracellular Ca2+ release / Ca2+ responses, HEK293T cell line", "setting": "[8]; 30 μM TFLLR", "value": "blocked; also recorded: lowest blocking effect"},
      {"measurement": "survival rate", "setting": "U87MG cells [9]", "value": "significantly increase the survival rate"}
    ]},
    {"molecule": "NCCOB(c1ccccc1)c1ccccc1", "note": "[2-APB]", "values": [
      {"measurement": "motility (wound closure by cell migration)", "setting": "[2]", "value": "mimicked"}
    ]},
    {"molecule": "C/C=C(/C)C(=O)O[C@H]1C(C)=C2[C@H]([C@@H]1OC(=O)CCCCCCC)[C@@](C)(OC(C)=O)C[C@H](OC(=O)CCC)[C@@]1(O)[C@H]2OC(=O)[C@@]1(C)O", "note": "[thapsigargin]", "values": [
      {"measurement": "subsequent induction increase in [Ca2+]i by bradykinin after store depletion", "setting": "U178MG cells [1]; store depletion by thapsigargin", "value": "completely inhibited"},
      {"measurement": "motility (wound closure by cell migration)", "setting": "[2]", "value": "mimicked"}
    ]},
    {"molecule": "Cn1c(=O)c2[nH]cnc2n(C)c1=O", "note": "[theophylline]", "values": [
      {"measurement": "blocking effect on IP3R3 mediated-Ca2+ response", "setting": "U178MG cells [1]; caffeine analogs, FIG. 10c", "value": "excellent selective blocking effect"}
    ]}
  ]
}
